Drawing on patent publication US12110293B2, “Substituted triazolo quinoxaline derivatives” (GRÜNENTHAL GMBH, priority 2018, dated 2024), this text covers IC50 or EC50 (agonist or antagonist mode not specified) for 29 compounds.

Where only a bound is given, the exact number is not on record here.

The target in the assay is T1, glucocorticoid receptor (Homo sapiens, UniProt P04150).
T1 construct: expressed in transfected cells
T1 sequence (P04150 524-758 limits assumed): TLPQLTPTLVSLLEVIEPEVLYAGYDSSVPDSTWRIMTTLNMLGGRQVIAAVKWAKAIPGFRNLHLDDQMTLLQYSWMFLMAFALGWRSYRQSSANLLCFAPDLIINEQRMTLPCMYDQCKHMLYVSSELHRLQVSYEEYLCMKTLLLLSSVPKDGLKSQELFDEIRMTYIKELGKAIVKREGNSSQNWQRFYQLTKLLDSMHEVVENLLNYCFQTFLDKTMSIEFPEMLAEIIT
Description: Agonistic mode of action on the glucocorticoid receptor (CHO-Gal4/GR luciferase reporter cell line). The format is cell-based. Particulars: range class observed in the agonistic assay or the antagonistic assay (CHO-Gal4/GR reporter cells); table does not say which mode applies per example. An outline of the steps:
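Agonism measured as dose-dependent luciferase luminescence (FLIPR Tetra) from a GAL4-UAS reporter driven by GAL4 DBD fused to GR ligand-binding domain in stable CHO cells. Eight half-log doses, 10 μM to 0.003 μM final in 0.5% DMSO, quadruplicate, on cells seeded 24 h earlier at 5000/well; EC50 derived.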

Turning to `Cc1c[nH]c2c(-c3c(OC(F)F)cc4c(c3F)-n3c(C)nnc3C(C)(C)N4)cccc12` [Example 282, 7-(Difluoro-methoxy)-9-fluoro-1,4,4-trimethyl-8-(3-methyl-1H-indol-7-yl)-5H-[1,2,4]triazolo[4,3-a]quinoxaline], the IC50 or EC50 (agonist or antagonist mode not specified) is 100 to 1000 nM.

The compound `Cc1c(-c2cccc3c2ccn3CC(F)F)c(F)cc2c1-n1c(C)nnc1C(C)(C)N2` [Example 330, 8-[1-(2,2-Difluoro-ethyl)-1H-indol-4-yl]-7-fluoro-1,4,4,9-tetramethyl-5H-[1,2,4]triazolo[4,3-a]quinoxaline] came in with an IC50 or EC50 (agonist or antagonist mode not specified) below 100 nM.

`Cc1nnc2n1-c1c(cc(F)c(-c3cc(F)cc4cc[nH]c34)c1C(F)F)NC2(C)C` [Example 515, 9-(Difluoro-methyl)-7-fluoro-8-(5-fluoro-1H-indol-7-yl)-1,4,4-trimethyl-5H-[1,2,4]triazolo[4,3-a] quinoxaline]: the IC50 or EC50 (agonist or antagonist mode not specified) was 100 to 1000 nM.

In turn, `COc1cc2c(c(C(F)(F)F)c1-c1cc(F)cc3c(C4CC4)c[nH]c13)-n1c(C)nnc1C(C)(C)N2` [Example 482, 8-(3-Cyclopropyl-5-fluoro-1H-indol-7-yl)-7-methoxy-1,4,4-trimethyl-9-(trifluoromethyl)-5H-[1,2,4]triazolo[4,3-a]quinoxaline] returned an IC50 or EC50 (agonist or antagonist mode not specified) below 100 nM.

In turn, `CCc1c(-c2cc(F)cc3c(C)c[nH]c23)c(F)cc2c1-n1c(C)nnc1C(C)(C)N2` [Example 47, 9-Ethyl-7-fluoro-8-(5-fluoro-3-methyl-1H-indol-7-yl)-1,4,4-trimethyl-5H-[1,2,4]triazolo[4,3-a]quinoxaline] had an IC50 or EC50 (agonist or antagonist mode not specified) below 100 nM.

Regarding `Cc1nnc2n1-c1c(cc(C(F)F)c(-c3cc(F)cc4c3ccn4S(C)(=O)=O)c1F)NC2(C)C` [Example 298, 7-(Difluoro-methyl)-9-fluoro-8-(6-fluoro-1-methylsulfonyl-1H-indol-4-yl)-1,4,4-trimethyl-5H-[1,2,4]triazolo[4,3-a]quinoxaline], the IC50 or EC50 (agonist or antagonist mode not specified) fell in the range of 1000 to 15000 nM.

As for `Cc1c[nH]c2c(-c3c(C(F)F)cc4c(c3F)-n3c(C)nnc3C(C)(C)N4)cccc12` [Example 306, 7-(Difluoro-methyl)-9-fluoro-1,4,4-trimethyl-8-(3-methyl-1H-indol-7-yl)-5H-[1,2,4]triazolo[4,3-a]quinoxaline], the IC50 or EC50 (agonist or antagonist mode not specified) lay within 100 to 1000 nM.

`Cc1nnc2n1-c1c(cc(F)c(-c3cc(F)cc4c3cnn4S(C)(=O)=O)c1F)NC2(C)C` [Example 276, 7,9-Difluoro-8-(6-fluoro-1-methylsulfonyl-1H-indazol-4-yl)-1,4,4-trimethyl-5H-[1,2,4]triazolo [4,3-a]quinoxaline] came in with an IC50 or EC50 (agonist or antagonist mode not specified) of 100 to 1000 nM.

For the compound `Cc1cc2c(c(F)c1-c1cc(F)cc3c(C)c[nH]c13)-n1c(C)nnc1C(C)(C)N2` [Example 364, 9-Fluoro-8-(5-fluoro-3-methyl-1H-indol-7-yl)-1,4,4,7-tetramethyl-5H-[1,2,4]triazolo[4,3-a]quinoxaline], the IC50 or EC50 (agonist or antagonist mode not specified) was 100 to 1000 nM.

In the case of `Cc1nnc2n1-c1c(cc(F)c(-c3cccc4[nH]ccc34)c1F)NC2(C)C` [Example 445, 7,9-Difluoro-8-(1H-indol-4-yl)-1,4,4-trimethyl-5H-[1,2,4] triazolo[4,3-a]quinoxaline], the IC50 or EC50 (agonist or antagonist mode not specified) was below 100 nM.

Compound `Cc1nnc2n1-c1c(cc(F)c(-c3cccc4c3cnn4S(=O)(=O)CC3CC3)c1F)NC2(C)C` [Example 239, 8-[1-(Cyclopropyl-methylsulfonyl)-1H-indazol-4-yl]-7,9-difluoro-1,4,4-trimethyl-5H-[1,2,4]triazolo[4,3-a]quinoxaline] returned an IC50 or EC50 (agonist or antagonist mode not specified) of 100 to 1000 nM.

In turn, `COCCn1ccc2c(-c3c(OC)cc4c(c3C)-n3c(C)nnc3C(C)(C)N4)cccc21` [Example 344, 7-Methoxy-8-[1-(2-methoxy-ethyl)-1H-indol-4-yl]-1,4,4,9-tetramethyl-5H-[1,2,4]triazolo[4,3-a] quinoxaline] returned an IC50 or EC50 (agonist or antagonist mode not specified) of 1000 to 15000 nM.

Regarding `Cc1c(-c2cccc3c2cnn3S(C)(=O)=O)c(F)cc2c1-n1c(C)nnc1C(C)(C)N2` [Example 377, 7-Fluoro-1,4,4,9-tetramethyl-8-(1-methylsulfonyl-1H-indazol-4-yl)-5H-[1,2,4]triazolo[4,3-a]quinoxaline], the IC50 or EC50 (agonist or antagonist mode not specified) was in the range of 100 to 1000 nM.

Consider `Cc1nnc2n1-c1c(cc(Cl)c(-c3cccc4c3ccn4S(C)(=O)=O)c1F)NC2(C)C` [Example 284, 7-Chloro-9-fluoro-1,4,4-trimethyl-8-(1-methylsulfonyl-1H-indol-4-yl)-5H-[1,2,4]triazolo[4,3-a]quinoxaline], for which the IC50 or EC50 (agonist or antagonist mode not specified) lay within 100 to 1000 nM.

Compound `Cc1c(-c2cc(F)cc3c2ccn3C)c(F)cc2c1-n1c(C)nnc1C(C)(C)N2` [Example 518, 7-Fluoro-8-(6-fluoro-1-methyl-1H-indol-4-yl)-1,4,4,9-tetramethyl-5H-[1,2,4]triazolo[4,3-a]quinoxaline] displayed an IC50 or EC50 (agonist or antagonist mode not specified) below 100 nM.

In the case of `Cc1c(-c2cc(F)cc3c2ccn3C)c(Cl)cc2c1-n1c(C)nnc1C(C)(C)N2` [Example 519, 7-Chloro-8-(6-fluoro-1-methyl-1H-indol-4-yl)-1,4,4,9-tetramethyl-5H-[1,2,4]triazolo[4,3-a]quinoxaline], the IC50 or EC50 (agonist or antagonist mode not specified) was below 100 nM.

The compound `Cc1c(-c2cc(F)cc3c(C)c[nH]c23)c(OC(F)F)cc2c1-n1c(C)nnc1C(C)(C)N2` [Example 365, 7-(Difluoro-methoxy)-8-(5-fluoro-3-methyl-1H-indol-7-yl)-1,4,4,9-tetramethyl-5H-[1,2,4]triazolo[4,3-a]quinoxaline] came in with an IC50 or EC50 (agonist or antagonist mode not specified) of 1000 to 15000 nM.

For `COCC(=O)n1ccc2c(-c3c(F)cc4c(c3F)-n3c(C)nnc3C(C)(C)N4)cccc21` [Example 213, 1-[4-(7,9-Difluoro-1,4,4-trimethyl-5H-[1,2,4]triazolo[4,3-a]quinoxalin-8-yl)-1H-indol-1-yl]-2-methoxy-ethanone], the IC50 or EC50 (agonist or antagonist mode not specified) is below 100 nM.

`Cc1nnc2n1-c1c(cc(F)c(-c3cccc4c3ccn4CCO)c1C(F)(F)F)NC2(C)C` [Example 456, 2-[4-[7-Fluoro-1,4,4-trimethyl-9-(trifluoromethyl)-5H-[1,2,4]triazolo[4,3-a]quinoxalin-8-yl]-1H-indol-1-yl]-ethanol] had an IC50 or EC50 (agonist or antagonist mode not specified) of 100 to 1000 nM.

With `Cc1c(-c2cccc3c(C#CC(C)(C)O)c[nH]c23)c(F)cc2c1-n1c(C)nnc1C(C)(C)N2` [Example 39], the IC50 or EC50 (agonist or antagonist mode not specified) lay in the range of 100 to 1000 nM.

Compound `Cc1c(-c2cccc3c(C)n[nH]c23)c(F)cc2c1-n1c(C)nnc1C(C)(C)N2` [Example 361, 7-Fluoro-1,4,4,9-tetramethyl-8-(3-methyl-1H-indazol-7-yl)-5H-[1,2,4]triazolo[4,3-a]quinoxaline] had an IC50 or EC50 (agonist or antagonist mode not specified) of 1000 to 15000 nM.

In the case of `Cc1nnc2n1-c1c(cc(F)c(-c3cc(C(F)(F)F)cc4[nH]ccc34)c1F)NC2(C)C` [Example 207, 7,9-Difluoro-1,4,4-trimethyl-8-[6-(trifluoromethyl)-1H-indol-4-yl]-5H-[1,2,4]triazolo[4,3-a]quinoxaline], the IC50 or EC50 (agonist or antagonist mode not specified) fell in the range of 100 to 1000 nM.

`Cc1nnc2n1-c1c(cc(F)c(-c3cc(F)cc4c3ccn4C3CC3)c1C(F)(F)F)NC2(C)C` [Example 88, 8-(1-Cyclopropyl-6-fluoro-1H-indol-4-yl)-7-fluoro-1,4,4-trimethyl-9-(trifluoromethyl)-5H-[1,2,4]triazolo[4,3-a]quinoxaline] came in with an IC50 or EC50 (agonist or antagonist mode not specified) below 100 nM.

Take `COc1c(-c2cccc3c2ccn3C(=O)OC(C)(C)C)c(F)cc2c1-n1c(C)nnc1C(C)(C)N2` [Example 260, 4-(7-Fluoro-9-methoxy-1,4,4-trimethyl-5H-[1,2,4]triazolo[4,3-a]quinoxalin-8-yl)-1H-indole-1-carboxylic acid tert-butyl ester]: the IC50 or EC50 (agonist or antagonist mode not specified) was 100 to 1000 nM.

Regarding `Cc1cc2c(c(C)c1-c1cccc3c1ccn3CC(F)F)-n1c(C)nnc1C(C)(C)N2` [Example 324, 8-[1-(2,2-Difluoro-ethyl)-1H-indol-4-yl]-1,4,4,7,9-pentamethyl-5H-[1,2,4]triazolo[4,3-a]quinoxaline], the IC50 or EC50 (agonist or antagonist mode not specified) lay in the range of 100 to 1000 nM.

`CCS(=O)(=O)n1ccc2c(-c3c(F)cc4c(c3OC)-n3c(C)nnc3C(C)(C)N4)cc(F)cc21` [Example 362, 8-[1-(Ethylsulfonyl)-6-fluoro-1H-indol-4-yl]-7-fluoro-9-methoxy-1,4,4-trimethyl-5H-[1,2,4]triazolo[4,3-a]quinoxaline] came in with an IC50 or EC50 (agonist or antagonist mode not specified) below 100 nM.

As for `Cc1c(-c2cccc3c2ccn3C2CC2)c(F)cc2c1-n1c(C)nnc1C(C)(C)N2` [Example 27, 8-(1-cyclopropyl-1H-indol-4-yl)-7-fluoro-1,4,4,9-tetramethyl-4,5-dihydro-[1,2,4]triazolo[4,3-a]quinoxaline], the IC50 or EC50 (agonist or antagonist mode not specified) is below 100 nM.

`COCCn1ccc2c(-c3c(Cl)cc4c(c3C)-n3c(C)nnc3C(C)(C)N4)cccc21` [Example 338, 7-Chloro-8-[1-(2-methoxy-ethyl)-1H-indol-4-yl]-1,4,4,9-tetramethyl-5H-[1,2,4]triazolo[4,3-a]quinoxaline] gave an IC50 or EC50 (agonist or antagonist mode not specified) of 100 to 1000 nM.

Take `Cc1n[nH]c2c(-c3c(F)cc4c(c3C(F)F)-n3c(C)nnc3C(C)(C)N4)cccc12` [Example 367, 9-(Difluoro-methyl)-7-fluoro-1,4,4-trimethyl-8-(3-methyl-1H-indazol-7-yl)-5H-[1,2,4]triazolo[4,3-a]quinoxaline]: the IC50 or EC50 (agonist or antagonist mode not specified) is 100 to 1000 nM.
